Drawing on patent US10160762B2, “6-alkyl dihydropyrazolopyrimidinone compounds as PDE2 inhibitors” (Merck Sharp & Dohme Corp., priority 2015, dated 2018), this text covers Ki for 31 compounds.

Each structure is given as a SMILES string. Where two headings read alike, the source gives them in different places.

The assay deals with T1, human PDE2A1 (Homo sapiens, UniProt O00408).
T1 construct: GST; purchased BPS Bioscience (San Diego, Calif.) 60020; host or cells: insect cells
The assay can be described thus: IMAP FP PDE assay, human PDE2A1. Format: biochemical. Summed up:
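FP (IMAP) read after 60 min room-temperature reaction of insect-cell GST-human PDE2A1 with 50 nM FAM-cAMP plus 1000 nM cGMP (pH 7.2 Tris, Mg2+, DTT). Compounds titrated 3-fold over ten points. Apparent Ki derived assuming KM of 10,000 nM; enzyme at 20% substrate turnover.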

[1] abbreviates: Lab B, read-out: Human PDE2 Ki (nM) Lab B.

T1 sequence (O00408 1-920 isoform O00408-2): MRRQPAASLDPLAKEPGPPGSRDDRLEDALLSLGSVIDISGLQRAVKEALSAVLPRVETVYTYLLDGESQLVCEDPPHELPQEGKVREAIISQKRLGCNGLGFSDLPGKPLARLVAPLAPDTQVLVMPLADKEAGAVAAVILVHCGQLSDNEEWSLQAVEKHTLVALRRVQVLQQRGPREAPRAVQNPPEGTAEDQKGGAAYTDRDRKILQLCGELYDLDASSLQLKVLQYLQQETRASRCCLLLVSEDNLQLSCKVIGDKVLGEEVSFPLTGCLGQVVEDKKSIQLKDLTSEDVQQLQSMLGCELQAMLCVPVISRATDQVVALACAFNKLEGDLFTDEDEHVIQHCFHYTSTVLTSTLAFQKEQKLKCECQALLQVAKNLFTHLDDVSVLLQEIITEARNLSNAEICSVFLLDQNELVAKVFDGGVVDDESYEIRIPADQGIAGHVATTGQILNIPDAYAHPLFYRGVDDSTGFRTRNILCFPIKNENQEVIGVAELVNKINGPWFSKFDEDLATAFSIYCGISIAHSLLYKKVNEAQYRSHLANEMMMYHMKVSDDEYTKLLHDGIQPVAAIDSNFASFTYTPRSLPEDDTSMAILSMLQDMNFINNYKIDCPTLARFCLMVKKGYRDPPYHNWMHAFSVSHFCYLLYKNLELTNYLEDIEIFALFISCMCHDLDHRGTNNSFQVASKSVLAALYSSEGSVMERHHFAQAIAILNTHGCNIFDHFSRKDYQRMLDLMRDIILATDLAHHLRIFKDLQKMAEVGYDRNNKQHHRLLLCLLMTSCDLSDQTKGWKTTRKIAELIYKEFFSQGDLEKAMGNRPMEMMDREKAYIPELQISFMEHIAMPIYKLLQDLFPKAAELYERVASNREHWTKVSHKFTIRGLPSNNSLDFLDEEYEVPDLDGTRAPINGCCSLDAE

For `Cc1nc2c(c(C(F)(F)CO)nn2C(C)c2ccc(C(F)(F)F)cc2)c(=O)[nH]1` (single isomer, unassigned) [Example 254], under setting [1], the Ki is 452 nM. Consider `CC(c1ccc(C(F)(F)F)cc1)n1nc(C#N)c2c(=O)[nH]c(CC3CCCC3)nc21` (single isomer, unassigned) [Example 351], for which the Ki under setting [1] is 1010 nM. For `CCC(c1ccc(OC(F)(F)F)cc1)n1nc(CO)c2c(=O)[nH]c(C)nc21` (single isomer, unassigned) [Example 134, (R)- or (S)-3-(Hydroxymethyl)-6-methyl-1-(1-(4-(trifluoro-methoxy)phenyl)propyl)-1H-pyrazolo[3,4-d]pyrimidin-4(5H)-one], the Ki under setting [1] came to 51 nM. The same measure, in the same setting: as for `Cc1nc2c(c(CO)nn2C(C)c2ccc(CC(F)(F)F)cc2)c(=O)[nH]1` (single isomer, unassigned) [Example 122, (R)- or (S)-3-(Hydroxymethyl)-6-methyl-1-(1-(4-(2,2,2-trifluoroethyl)phenyl)ethyl)-1H-pyrazolo[3,4-d]pyrimidin-4(5H)-one], the figure is 194 nM. Consider `COc1ccc(Cc2nc3c(c(CO)nn3C(C)c3ccc(C(F)(F)F)cc3)c(=O)[nH]2)cc1OC` (racemic) [Example 297, 6-(3,4-Dimethoxybenzyl)-3-(hydroxymethyl)-1-{1-[4-(trifluoromethyl)phenyl]ethyl}-1,5-dihydro-4H-pyrazolo[3,4-d]pyrimidin-4-one], for which the Ki (Lab A, read-out: Human PDE2 Ki (nM) Lab A) is 0.72 nM. Turning to `CC(c1ccc(C(F)(F)F)cc1)n1nc(C(F)F)c2c(=O)[nH]c(C3CC3)nc21` (single isomer, unassigned) [Example 191, (R)- or (S)-6-Cyclopropyl-3-(difluoromethyl)-1-(1-(4-(trifluoromethyl)phenyl)ethyl)-1,5-dihydro-4H-pyrazolo[3,4-d]pyrimidin-4-one], the Ki under setting [1] worked out at 268 nM.

Regarding `COCc1nc2c(c(CO)nn2C(C)c2ccc(S(F)(F)(F)(F)F)cc2)c(=O)[nH]1` (single isomer, unassigned) [Example 317, (R)- or (S)-3-(Hydroxy-methyl)-6-(methoxy-methyl)-1-{1-[4-(pentafluoro-sulfanyl)-phenyl]ethyl}-1,5-dihydro-4H-pyrazolo[3,4-d]pyrimidin-4-one], the Ki under setting [1] was determined as 150 nM. On the same count and under the same terms, as for `Cc1nc2c(c(Br)nn2C(C)c2ccc(C(F)(F)F)cc2)c(=O)[nH]1` (single isomer, unassigned) [Example 325], the figure is 3.7 nM. Regarding `Cc1nc2c(c(CO)nn2C(CC(F)(F)F)c2ccc(C(F)(F)F)cc2)c(=O)[nH]1` (single isomer, unassigned) [Example 96, (R)- or (S)-3-(Hydroxymethyl)-6-methyl-1-(3,3,3-trifluoro-1-(4-(trifluoromethyl)phenyl)propyl)-1H-pyrazolo[3,4-d]pyrimidin-4(5H)-one], the Ki under setting [1] came out at 16 nM. For `Cc1nc2c(c(C(=O)N3CCOCC3)nn2C(C)c2ccc(C(F)(F)F)cc2)c(=O)[nH]1` (single isomer, unassigned) [Example 271, (S)- or (R)-6-Methyl-3-(morpholine-4-carbonyl)-1-(1-(4-(trifluoromethyl)phenyl)ethyl)-1H-pyrazolo[3,4-d]pyrimidin-4(5H)-one], the Ki under setting [1] was above 2960 nM.

On to `Cc1nc2c(c(C(F)F)nn2C(C)c2ccc(C(F)(F)F)nc2)c(=O)[nH]1` (single isomer, unassigned) [Example 194], for which the Ki under setting [1] came out at 14 nM. Still for that read-out and setting: as for `COCC(c1ccc(C(F)(F)F)cc1)n1nc(C(F)F)c2c(=O)[nH]c(C)nc21` (single isomer, unassigned) [Example 174, (S)- or (R)-3-(Difluoromethyl)-1-(2-methoxy-1-(4-(trifluoromethyl)phenyl)ethyl)-6-methyl-1H-pyrazolo[3,4-d]pyrimidin-4(5H)-one], the figure is 278 nM. On the same count and under the same terms, as for `COCc1nc2c(c(CO)nn2C(C)c2ccc(S(F)(F)(F)(F)F)cc2)c(=O)[nH]1` (single isomer, unassigned) [Example 318, (S)- or (R)-3-(Hydroxymethyl)-6-(methoxymethyl)-1-{1-[4-(pentafluorosulfanyl)phenyl]ethyl}-1,5-dihydro-4H-pyrazolo[3,4-d]pyrimidin-4-one], the figure is 3.8 nM. Same read-out and setting: in the case of `Cc1nc2c(c(CO)nn2C(C)c2ccc(C(F)(F)F)cc2I)c(=O)[nH]1` (single isomer, unassigned) [Example 141, (S)- or (R)-3-(Hydroxymethyl)-1-(1-(2-iodo-4-(trifluoromethyl-)phenyl)ethyl)-6-methyl-1,5-dihydro-4H-pyrazolo[3,4-d]pyrimidin-4-one] it was 12 nM; in that of `Cc1nc2c(c(CO)nn2C(C)c2ccc(C(F)(F)F)nn2)c(=O)[nH]1` (single isomer, unassigned) [Example 145, (R)- or (S)-3-(Hydroxymethyl)-6-methyl-1-(1-(6-(trifluoromethyl)pyridazin-3-yl)ethyl)-1H-pyrazolo[3,4-d]pyrimidin-4(5H)-one], above 2960 nM; in that of `Cc1nc2c(c(CO)nn2C(C)c2ccc(C(F)(F)F)cc2F)c(=O)[nH]1` (single isomer, unassigned) [Example 16, (R)- or (S)-1-(1-(2-Fluoro-4-(trifluoromethyl)phenyl)ethyl)-3-(hydroxymethyl)-6-methyl-1H-pyrazolo[3,4-d]pyrimidin-4(5H)-one], 81 nM. Regarding `Cc1nc2c(c(C(F)F)nn2C(C)c2ccc(OC(F)(F)F)c(F)c2)c(=O)[nH]1` (single isomer, unassigned) [Example 169, (R)- or (S)-3-(Difluoromethyl)-1-(1-(3-fluoro-4-(trifluoromethoxy)phenyl)ethyl)-6-methyl-1H-pyrazolo [3,4-d]pyrimidin-4(5H)-one], under setting [1], the Ki stood at 18 nM.

On to `Cc1nc2c(c(CC(F)(F)F)nn2C(C)c2ccc(C(F)(F)F)cc2)c(=O)[nH]1` (single isomer, unassigned) [Example 64, (R)- or (S)-6-Methyl-3-(2,2,2-trifluoroethyl)-1-(1-(4-(trifluoromethyl)phenyl)ethyl)-1H-pyrazolo[3,4-d]pyrimidin-4(5H)-one], for which the Ki under setting [1] was 274 nM. On the same count and under the same terms, as for `Cc1nc2c(c(CO)nn2C(C)c2ccc(OC(F)(F)F)cc2F)c(=O)[nH]1` (single isomer, unassigned) [Example 105, (S)- or (R)-1-(1-(2-Fluoro-4-(trifluoromethoxy)phenyl)ethyl)-3-(hydroxymethyl)-6-methyl-1H-pyrazolo[3,4-d]pyrimidin-4(5H)-one], the figure is 1.9 nM. Same read-out and setting: as for `Cc1nc2c(c(CO)nn2C(C)c2ccc(C(F)(F)F)s2)c(=O)[nH]1` (single isomer, unassigned) [Example 155, (R)- or (S)-3-(Hydroxymethyl)-6-methyl-1-(1-(5-(trifluoromethyl)thiophen-2-yl)ethyl)-1H-pyrazolo[3,4-d]pyrimidin-4(5H)-one], the figure is around 1630 nM. Same read-out and setting: in the case of `Cc1nc2c(c(C(F)F)nn2C(C)c2ccc(C3(C(F)(F)F)CC3)cc2)c(=O)[nH]1` (stereo not shown) [Example 164, 3-(Difluoromethyl)-6-methyl-1-(1-(4-(1-(trifluoromethyl)cyclopropyl)phenyl)ethyl)-1H-pyrazolo[3,4-d]pyrimidin-4(5H)-one] it was 8.2 nM; in that of `Cc1nc2c(c(CO)nn2C(C)c2ccc(C(F)(F)F)cn2)c(=O)[nH]1` (single isomer, unassigned) [Example 151, (R)- or (S)-3-(Hydroxymethyl)-6-methyl-1-(1-(5-(trifluoromethyl)pyridin-2-yl)ethyl)-1H-pyrazolo[3,4-d]pyrimidin-4(5H)-one], 25 nM. On to `CC(c1ccc(C(F)(F)F)cc1)n1nc(-c2nnco2)c2c(=O)[nH]c(CC3CC3)nc21` (single isomer, unassigned) [Example 341, (S)- or (R)-6-(Cyclopropylmethyl)-3-(1,3,4-oxadiazol-2-yl)-1-(1-(4-(trifluoromethyl)phenyl)ethyl)-1,5-dihydro-4H-pyrazolo[3,4-d] pyrimidin-4-one], for which, under setting [1], the Ki was determined as 191 nM. Regarding `Cc1nc2c(c(-c3cn[nH]c3)nn2C(C)c2ccc(C(F)(F)F)cc2)c(=O)[nH]1` (single isomer, unassigned) [Example 238], the Ki under setting [1] stood at 48 nM.

Regarding `Cc1nc2c(c(C3CCCO3)nn2C(C)c2ccc(C(F)(F)F)cc2)c(=O)[nH]1` (single isomer, unassigned) [Example 70, (R, R)- or (R, S) or (S, R) or (S, S)-6-Methyl-3-(-tetrahydrofuran-(trifluoromethyl)phenyl)ethyl)-1H-pyrazolo[3,4-d]pyrimidin-4(5H)-one], under setting [1], the Ki was 159 nM. Same read-out and setting: in the case of `Cc1nc2c(c(-c3nnco3)nn2C(C)c2ccc(C(F)(F)F)cc2)c(=O)[nH]1` (single isomer, unassigned) [Example 262] it was 395 nM. On the same count and under the same terms, as for `Cc1nc2c(c(CO)nn2C(C)c2ncn(CC(F)(F)F)n2)c(=O)[nH]1` (single isomer, unassigned) [Example 147], the figure is above 2960 nM; as for `Cc1nc2c(c(C(F)F)nn2C(C)c2ccc(OC(F)(F)F)cc2)c(=O)[nH]1` (single isomer, unassigned) [Example 177, (R)- or (S)-3-(Difluoromethyl)-6-methyl-1-(1-(4-(trifluoromethoxy)phenyl)ethyl)-1H-pyrazolo[3,4-d]pyrimidin-4(5H)-one], 61 nM; as for `Cc1nc2c(c(CC(C)O)nn2C(C)c2ccc(C(F)(F)F)cc2)c(=O)[nH]1` (single isomer, unassigned) [Example 246], 72 nM. Turning to `Cc1nc2c(c(CC(C)O)nn2C(C)c2ccc(C(F)(F)F)cc2)c(=O)[nH]1` (single isomer, unassigned) [Example 243], under setting [1], the Ki is 808 nM.

Take `Cc1nc2c(c(CO)nn2C2(c3ccc(C(F)(F)F)cc3)CC2)c(=O)[nH]1` [Example 142, 3-(Hydroxymethyl)-6-methyl-1-(1-(4-(trifluoromethyl)phenyl)cyclopropyl)-1H-pyrazolo[3,4-d]pyrimidin-4(5H)-one]: the Ki under setting [1] was 8.2 nM.

What is called Ki is a dissociation constant, usually derived from enzyme kinetics or from competition with a known ligand.
